The record followed here is US8183236B2, “Compounds with HIV-1 integrase inhibitory activity and use thereof as anti-HIV/AIDS therapeutics” (University of Southern California, priority 2007, dated 2012).

Test [1] concerns the target T1, HIV-1 integrase (wild-type IN) (Human immunodeficiency virus type 1 group M subtype B, UniProt P12497). Nature of the test: HIV-1 integrase 3′-processing assay (32P-labeled 21-mer, gel). To be noted: unit inferred; read-out: IN inhibition activity 3′-processing. Type of test: biochemical. From the text: (§1) The oligonucleotides 21 top, 5′-[…]-3′ (SEQ ID NO:1) and 21 bot, 5′-[…]-3′ (SEQ ID NO:2) were purchased from Norris Cancer Center Core Facility (University of Southern California) and purified by UV shadowing on polyacrylamide gel. To analyze the extent of 3′-processing and strand transfer using 5′-end labeled substrates, 21 top was 5′-end labeled using T4 polynucleotide kinase (Epicentre, Madison, Wis.) and γ [^32P]-ATP (Amersham Biosciences or ICN). The kinase was heat-inactivated and 21 bot was added in 1.5-molar excess. The mixture was heated at 95° C., allowed to cool slowly to room temperature, and run through a spin 25 mini-column (USA Scientific) to separate annealed double-stranded oligonucleotide from unincorporated material.
(§2) To determine the extent of 3′-processing and strand transfer, wild-type IN was preincubated at a final concentration of 200 nM with the inhibitor in reaction buffer (50 mM NaCl, 1 mM HEPES, pH 7.5, 50 μM EDTA, 50 μM dithiothreitol, 10% glycerol (w/v), 7.5 mM MnCl2, 0.1 mg/ml bovine serum albumin, 10 mM 2-mercaptoethanol, 10% dimethyl sulfoxide, and 25 mM MOPS, pH 7.2) at 30° C. for 30 min. Then, 20 nM of the 5′-end ^32P-labeled linear oligonucleotide substrate was added, and incubation was continued for an additional one hour. Reactions were quenched by the addition of an equal volume (16 μl) of loading dye (98% deionized formamide, 10 mM EDTA, 0.025% xylene cyanol and 0.025% bromophenol blue). An aliquot (5 μl) was electrophoresed on a denaturing 20% polyacrylamide gel (0.09 M tris-borate pH 8.3, 2 mM EDTA, 20% acrylamide, 8M urea).
(§3) Gels were dried, exposed in a PhosphorImager cassette, and analyzed using a Typhoon 8610 Variable Mode Imager (Amersham Biosciences) and quantitated using ImageQuant 5.2. Percent inhibition (% I) was calculated using the following equation: %I=100×[1−(D−C)/(N−C)]
(§4) where C, N, and D are the fractions of 21-mer substrate converted to 19-mer (3′-processing product) or strand transfer products for DNA alone, DNA plus IN, and IN plus drug, respectively. The IC50 values were determined by plotting the logarithm of drug concentration versus percent inhibition to obtain concentration that produced 50% inhibition. […]

In test [2] the target is T1, HIV-1 integrase (wild-type IN). In words: HIV-1 integrase strand transfer assay (32P-labeled 21-mer, gel). The format is biochemical. To be noted: unit inferred; read-out: IN inhibition activity Strand transfer.
Description: as §1, §2, §3, §4

For `Cc1ccc(-n2c(SCC(=O)NNC(=O)c3ccccc3O)nnc2-c2ccccc2O)cc1` [AS9], the IC50 was determined as 5 ± 2 µM in test [1] and 3 ± 1 µM in test [2].

As for `COc1ccc(OC)c(C2C(C(=O)c3ccc(Cl)cc3)=C(O)C(=O)N2CCCCCC(=O)O)c1` (centres unmarked) [AS16], the figures for the IC50 in test [1] and in test [2] were 88 µM and 40 ± 5 µM, respectively.

`O=C(CSc1nnc(-c2ccccc2)n1Cc1ccccc1)NNC(=O)c1ccccc1O` [AS90]: the results for the IC50 in test [1] and in test [2] were 21 ± 6 µM and 9 ± 7 µM, respectively.

Turning to `Cc1ccc(-n2c(SCC(=O)NNC(=O)c3ccccc3O)nnc2-c2ccccc2)cc1` [AS120], the IC50 came out at 23 ± 6 µM in test [1] and 12 ± 8 µM in test [2].

Turning to `COc1ccc(C2C(C(=O)c3ccc(Br)cc3)=C(O)C(=O)N2c2cccc(C(F)(F)F)c2)cc1OC` (centres unmarked) [AS134], the IC50 in test [1] amounted to 47 ± 7 µM; in test [2] it was 26 ± 9 µM.

Take `Cc1ccc(C(=O)C2=C(O)C(=O)N(c3ncc(S(=O)(=O)c4ccc([N+](=O)[O-])cc4)s3)C2c2cccc(Cl)c2)cc1` (centres unmarked) [AS139 BAS 02234865]: the IC50 in test [1] came out at 27 ± 10 µM; in test [2], 8 ± 2 µM.

As for `COc1ccc(C2C(C(=O)c3ccc(Br)cc3)=C(O)C(=O)N2CCc2ccccc2)cc1OC` (centres unmarked) [AS143], the figures for the IC50 in test [1] and in test [2] were 60 ± 3 µM and 42 ± 10 µM, respectively.

With `CCOc1ccc(C(=O)C2=C(O)C(=O)N(c3nccs3)C2c2ccc(O)c(OC)c2)cc1` (centres unmarked) [AS161], the IC50 in test [1] came to 57 ± 27 µM; in test [2] it was 30 ± 7 µM.

`COc1ccc(C2C(C(=O)c3ccc(Br)cc3)=C(O)C(=O)N2c2cc(C(C)(C)C)on2)cc1OC` (centres unmarked) [AS171]: the IC50 in test [1] stood at 45 ± 8 µM; in test [2], 43 ± 26 µM.

For the molecule `O=C(CSc1nnc(Cc2ccccc2)n1-c1cccc(Cl)c1)NNC(=O)c1ccccc1O` [AS230], the IC50 in test [1] was determined as 9 ± 1 µM; in test [2], 8 ± 4 µM.

In the case of `O=C(O)c1cccc(-c2ccc(/C=N/Nc3nnn[nH]3)o2)c1` [AV15A1], the IC50 in test [1] is > 100 µM; in test [2], 96 ± 6 µM.

In the case of `N=C1NC(=O)/C(=C\c2ccc(-c3cccc(C(=O)O)c3)o2)S1` [AV15A2], the IC50 is > 100 µM in test [1] and 90 ± 17 µM in test [2].

Consider `O=C(O)c1cccc(-c2ccc(/C=N/NC(=O)c3cccnc3)o2)c1` [AV15A4], for which the results for the IC50 in test [1] and in test [2] were > 100 µM and 96 ± 6 µM, respectively.

As for `Nc1nonc1C(=O)N/N=C/c1ccc(-c2cccc(C(=O)O)c2)o1` [AV15A5], the IC50 in test [1] was > 100 µM; in test [2], 88 ± 21 µM.

Regarding `O=C(O)c1cccc(-c2ccc(/C=C3\Sc4ccccc4C3=O)o2)c1` [AV15A6], the IC50 came out at 76 µM in test [1] and 24 µM in test [2].

With `N#C/C(=C\c1ccc(-c2cccc(C(=O)O)c2)o1)c1nc2ccccc2[nH]1` [AV15A7], the IC50 in test [1] is > 100 µM; in test [2] it was 17 µM.

With `N#C/C(=C\c1ccc(-c2ccc(O)c(C(=O)O)c2)o1)c1nc2ccccc2[nH]1` [AV15A9], the results for the IC50 in test [1] and in test [2] were 25 ± 10 µM and 14 ± 4 µM, respectively.

With `N#C/C(=C\c1ccc(-c2ccc(Cl)c(C(=O)O)c2)o1)c1nc2ccccc2[nH]1` [AV15A10], the values for the IC50 in test [1] and in test [2] were 76 µM and 30 µM, respectively.

In the case of `CC1=C(C#N)c2nc(N)c(C#N)c(C)c2/C1=C/c1ccc(-c2cccc(C(=O)O)c2)o1` [AV15A11], the IC50 in test [1] worked out at 24 ± 16 µM; in test [2], 20 ± 13 µM.

For the molecule `O=C(O)c1cc(-c2ccc(/C=C/c3cc(C(F)(F)F)[nH]c(=O)n3)o2)ccc1Cl` [AV15A12], the IC50 turned out to be 74 ± 32 µM in test [1] and 50 ± 25 µM in test [2].

As for `O=C(O)c1cc(-c2ccc(/C=N/Nc3nc4nonc4nc3Nc3ccccc3F)o2)ccc1Cl` [AV15A14], the IC50 in test [1] worked out at 16 ± 8 µM; in test [2] it was 13 ± 5 µM.

Take `O=C(O)c1cc(-c2ccc(/C=N/Nc3nc4nonc4nc3Nc3ccc(F)cc3)o2)ccc1Cl` [AV15A15]: the IC50 in test [1] stood at 12 ± 6 µM; in test [2], 6.5 ± 1 µM.

Take `O=C(O)c1cccc(-c2ccc(/C=N/Nc3nc(N4CCOCC4)nc(N4CCOCC4)n3)o2)c1` [AV15A16]: the IC50 in test [1] and in test [2] was > 100 µM throughout.

Regarding `COc1cc(/C=N/Nc2nc3nonc3nc2Nc2ccccc2F)ccc1O` [AV15A18], the IC50 in test [1] turned out to be 30 ± 12 µM; in test [2] it was 17 ± 5 µM.

As for `COC(=O)c1ccc(/C=N/Nc2nc3nonc3nc2Nc2ccccc2F)cc1` [AV15A19], the IC50 in test [1] and in test [2] was > 100 µM each time.

For `O=C(O)c1cccc(-c2ccc(/C=N/NC(=O)c3ccc(C(=O)N/N=C/c4ccc(-c5cccc(C(=O)O)c5)o4)cc3)o2)c1` [AV15A20], the IC50 in test [1] was > 100 µM; in test [2] it was 95 µM.

Turning to `Cc1cccc(Nc2nc3nonc3nc2N/N=C/c2ccc(-c3cccc(C(=O)O)c3)o2)c1` [AV15A21], the IC50 came to 10 ± 5 µM in test [1] and 7 ± 2 µM in test [2].

For the molecule `O=C(O)c1cc(-c2ccc(/C=c3\sc4nc5ccccc5n4c3=O)o2)ccc1Cl` [AV15A22], the IC50 in test [1] amounted to 23 ± 3 µM; in test [2], 15 ± 4 µM.

For the molecule `N#Cc1c(/N=C/c2ccc(-c3cccc(C(=O)O)c3)o2)sc2c1CCCC2` [AV15A23], the IC50 amounted to 89 ± 20 µM in test [1] and 62 ± 7 µM in test [2].

As to `O=C(O)c1cc(-c2ccc(/C=N/Nc3nc4nonc4nc3Nc3cccc(Br)c3)o2)ccc1O` [AV15A24], the IC50 in test [1] turned out to be 5 ± 3 µM; in test [2] it was 3.4 ± 2 µM.

For `COc1cc(-c2nc3ccccn3c2/N=C/c2ccc(-c3ccc(Cl)c(C(=O)O)c3)o2)ccc1O` [AV15A25], the IC50 in test [1] and in test [2] was > 100 µM each time.

On to `CN(C)c1nc(NCc2ccccc2)nc(N/N=C/c2ccc(-c3cccc(C(=O)O)c3)o2)n1` [AV15A26], for which the IC50 in test [1] was > 100 µM; in test [2], 88 µM.

Regarding `O=C(O)c1cccc(-c2ccc(/C=N/N(c3ccccc3)c3ccccc3)o2)c1` [AV15A27], the IC50 stood at 42 ± 24 µM in test [1] and 26 ± 12 µM in test [2].

On to `O=C(O)c1ccc(-c2ccc(/C=N/Nc3nc(Nc4ccccc4)nc(Nc4ccccc4)n3)o2)cc1O` [AV15A28], for which the IC50 in test [1] and in test [2] was > 100 µM in each case.

In the case of `N#C/C(=C\c1ccc(-c2ccc(C(=O)O)c(O)c2)o1)c1nc2ccccc2[nH]1` [AV15A31], the IC50 was found to be 34 µM in test [1] and 24 µM in test [2].

On to `Cc1cc2nc3s/c(=C\c4ccc(-c5cccc(C(=O)O)c5)o4)c(=O)n3c2cc1C` [AV15A32], for which the IC50 in test [1] and in test [2] was > 100 µM in each case.

Take `CC(C)(C)c1ccc(OCC(=O)N/N=C/c2ccc(-c3cccc(C(=O)O)c3)o2)cc1` [AV15A35]: the results for the IC50 in test [1] and in test [2] were > 100 µM and 86 µM, respectively.

In the case of `CC(C)(C)c1ccc(C(=O)N/N=C/c2ccc(-c3cccc(C(=O)O)c3)o2)cc1` [AV15A36], the IC50 in test [1] is > 100 µM; in test [2], 56 ± 22 µM.

For `Cc1nnc(N/N=C/c2ccc(-c3ccccc3C(=O)O)o2)n1N` [AV15A37], the IC50 in test [1] and in test [2] was > 100 µM in each case.

Consider `COc1cc(C(=O)N/N=C/c2ccc(-c3cccc(C(=O)O)c3)o2)cc(OC)c1OC` [AV15A38], for which the IC50 in test [1] was > 100 µM; in test [2] it was 49 ± 12 µM.

`Clc1ccc(-c2ccc(/C=N/Nc3nc(Nc4ccccc4)nc(Nc4ccccc4)n3)o2)cc1` [AV15A39]: the IC50 in test [1] and in test [2] was > 100 µM each time.

Turning to `O=C(N/N=C/c1ccc(-c2ccc(Cl)c(C(=O)O)c2)o1)c1ccncc1` [AV15A40], the IC50 worked out at 90 ± 18 µM in test [1] and 46 ± 23 µM in test [2].

For `O=C(N/N=C/c1ccc(-c2ccc(Cl)c(C(=O)O)c2)o1)c1ccc(F)cc1` [AV15A41], the IC50 in test [1] and in test [2] was > 100 µM each time.

For the molecule `O=C(O)c1cccc(-c2ccc(/C=N/Nc3nc4ccccc4s3)o2)c1` [AV15A43], the IC50 in test [1] came to 63 ± 7 µM; in test [2], 24 ± 11 µM.

In the case of `CC1=C(C#N)c2nc(N)c(C#N)c(C)c2/C1=C/c1ccc(-c2ccc(C(=O)O)c(Cl)c2)o1` [AV15A44], the IC50 is > 100 µM in test [1] and 68 ± 22 µM in test [2].

Turning to `CC1=C(C#N)c2nc(N)c(C#N)c(C)c2/C1=C/c1ccc(-c2ccccc2C(=O)O)o1` [AV15A45], the results for the IC50 in test [1] and in test [2] were 91 ± 16 µM and 39 µM, respectively.

`COC(=O)c1ccccc1-c1ccc(/C=C(\C#N)c2nc3ccccc3[nH]2)o1` [AV15A46]: the IC50 in test [1] and in test [2] was > 100 µM each time.

Consider `O=C(Cc1ccc(F)cc1)N/N=C/c1ccc(-c2ccc(Cl)c(C(=O)O)c2)o1` [AV15A47], for which the IC50 in test [1] and in test [2] was > 100 µM each time.

As to `CC1=C(C#N)c2nc(N)c(C#N)c(C)c2/C1=C/c1ccc(-c2ccc(F)cc2)o1` [AV15A48], the IC50 in test [1] and in test [2] was > 100 µM each time.
